Earlier results as cited in article PMC9291711, “PLGA-modified Syloid®-based microparticles for the ocular delivery of terconazole: in-vitro and in-vivo investigations” (Drug Delivery, 2022).

Settings: stated without reference

Pka: 8 | log P: 5.37
SMILES: CC(C)N1CCN(c2ccc(OCC3COC(Cn4cncn4)(c4ccc(Cl)cc4Cl)O3)cc2)CC1 (centres unmarked) [Terconazole, terconazole]
